From BindingDB's records for doi:10.1016/j.ejmech.2017.04.079 (Harvard Medical School, 2017)

Assays:
[1] = Inhibition of EML4/ALK (unknown origin) transfected in mouse BAF3 cells assessed as reduction in cell viability after 72 hrs by MTS assay
[2] = Inhibition of EGFR L858R mutant (unknown origin) transfected in mouse BAF3 cells assessed as reduction in cell viability after 72 hrs by MTS assay
[3] = Inhibition of EGFR T790M/L858R double mutant (unknown origin) transfected in mouse BAF3 cells assessed as reduction in cell viability after 72 hrs by MTS assay

Structure (SMILES) | EC50 [1] [nM] | EC50 [2] [nM] | EC50 [3] [nM]
C=CC(=O)Nc1cc(Nc2nccc(-c3cn(C)c4ccccc34)n2)c(OC)cc1N(C)CCN(C)C [AZD-9291] | 1750 |  | 
C=CC(=O)Nc1cc(Nc2nccc(Nc3ccccc3P(C)(C)=O)n2)c(OC)cc1N(C)CCN(C)C | > 5000 |  | 
C=CC(=O)Nc1cccc(Oc2nc(Nc3ccc(N4CCN(C)CC4)cc3OC)ncc2Cl)c1 | 6260 |  | 
CCC(=O)Nc1cc(Nc2ncc(Cl)c(Nc3ccccc3S(=O)(=O)C(C)C)n2)c(OC)cc1N(C)CCN(C)C |  | 666 | 972
